Experimental findings from patent publication EP4755890A1, “OXO-TRICYCLIC DERIVATIVE AND PHARMACEUTICAL USE THEREOF” (Haisco Pharmaceutical Group Co., Ltd., priority 2023, dated 2025) are described below.

Some results are limits rather than exact numbers.

The term AUC(0-t) denotes exposure summed from dosing to a finite time, without extrapolation to infinity. For orientation: half-life means the time in which the quantity being followed falls by half.

The target of data set [1] is T1, WRN protein (AA N517-P1238, ICE, Cat. S2212T-H56HZ) (Homo sapiens, UniProt Q14191).
T1 construct: WRN protein (AA N517-P1238, ICE, Cat. S2212T-H56HZ); purchased ICE S2212T-H56HZ
T1 sequence (Q14191 517-1238, stated change not applied): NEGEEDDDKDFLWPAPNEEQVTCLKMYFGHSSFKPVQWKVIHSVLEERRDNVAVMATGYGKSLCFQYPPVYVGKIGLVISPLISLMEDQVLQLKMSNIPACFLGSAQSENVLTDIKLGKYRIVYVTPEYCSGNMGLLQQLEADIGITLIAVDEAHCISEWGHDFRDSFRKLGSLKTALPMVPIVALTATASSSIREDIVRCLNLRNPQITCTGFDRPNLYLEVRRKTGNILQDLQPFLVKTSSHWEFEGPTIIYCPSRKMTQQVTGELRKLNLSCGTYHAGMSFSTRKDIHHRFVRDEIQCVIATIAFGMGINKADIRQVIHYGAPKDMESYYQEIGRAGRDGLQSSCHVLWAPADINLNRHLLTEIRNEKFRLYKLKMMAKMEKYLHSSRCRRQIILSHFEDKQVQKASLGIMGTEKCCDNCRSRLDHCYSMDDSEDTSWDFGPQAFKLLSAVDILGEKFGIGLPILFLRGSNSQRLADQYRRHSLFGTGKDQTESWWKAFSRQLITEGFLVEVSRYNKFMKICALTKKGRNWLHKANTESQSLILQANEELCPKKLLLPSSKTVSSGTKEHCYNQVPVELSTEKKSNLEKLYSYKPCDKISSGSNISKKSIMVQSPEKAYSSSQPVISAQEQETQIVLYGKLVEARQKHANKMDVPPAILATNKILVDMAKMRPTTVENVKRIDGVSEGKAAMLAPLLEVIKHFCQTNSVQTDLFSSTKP
Nature of the data set: Assay for WRN helicase activity (FORKF dsDNA unwinding, fluorescence). In kind it is biochemical. Particulars: inhibition of WRN helicase activity; 10 nM WRN, 10 nM FORKF, 2 mM ATP. The protocol: The assay buffer working solution prepared with RNAase-free water was as follows: 25 mM Tris (pH 7.5), 2 mM MgCl2, 50 mM NaCl, 0.02% BSA, 0.01% Tween, and 1 mM DTT. WRN protein (AA N517-P1238, ICE, Cat. S2212T-H56HZ) was obtained through protein expression and purification in vitro. Two single-stranded DNAs were synthesized: […]-BHQ2 (quencher), and (fluorophore) TAMRA-[…]. dsDNA (FORKF) was obtained via annealing of the two single-stranded DNAs. When the WRN protein bound to FORKF, the dsDNA was unwound, exposing the fluorophore, thereby generating fluorescence. 2 µL of compounds at different concentrations and 4 µL of WRN protein were added to a 384-well black plate (Greiner, Cat#784075). The plate was pre-incubated at room temperature for 20 minutes. 2 µL each of ATP and the FORKF substrate were added. The working concentrations of the WRN protein, FORKF, and ATP were 10 nM, 10 nM, and 2 mM, respectively. The plate was incubated at room temperature for 20 minutes. After the incubation was completed, the fluorescence value was read at Ex 540 nm/Em 590 nm using a BMG microplate reader (PHERAstar FSX).
The inhibition rate was calculated according to Formula 2, where RLUsample is the readout of the compound well, RLUmax is the readout of the DMSO control well, and RLUmin is the readout of the control well without the WRN protein. Curve fitting was performed via a four-parameter logistic model using GraphPad Prism software, and the IC50 value (the concentration of the compound when the inhibition rate was 50%) was calculated. Inhibition% = (1−(RLUsample−RLUmin)/(RLUmax−RLUmin)) × 100% [formula] Table 2. Results of inhibitory activity of test compounds against WRN helicase activity

The test system of data set [2] is SW48 cells. Nature of the data set: SW48 cell proliferation inhibition assay (CellTiter-Glo). In kind it is cell-based. Particulars: Homo sapiens, 96 h, 4 days, read-out: Inhibitory activity against SW48 cell proliferation IC50. The procedure: (§1) The culture conditions for SW48 cells were as follows: Leibovitz L15 + 10% FBS + 1% penicillin-streptomycin, and the cells were cultured in an incubator without CO2 at 37°C. On the first day, the SW48 cells in the exponential growth phase were collected and plated in 96-well cell culture plates at a density of 1000 cells/well (180 µL/well). The plates were cultured overnight in an incubator without CO2 at 37°C. T0 wells were plated simultaneously during the plating process. The next day, 20 µL of compounds at different concentrations were added to each well (nine compound concentration gradients, one DMSO well, and one blank well; each compound concentration was plated in triplicate), and the final concentration of DMSO in each well was 0.1%. The plates were cultured in an incubator without CO2 at 37°C for 4 days. On the same day of compound addition, the T0 plate was detected using the CellTiter-Glo Kit, and the detected value was recorded as RLU0. After the culture was completed, 100 µL of detection solution (Cell Viability Assay, Promega) was added to each well. The plates were incubated at room temperature for 10 minutes with slow shaking. The chemiluminescence reading was read using a BMG microplate reader (PHERAstar FSX). The results were processed according to Formula (5) to calculate the proliferation inhibition rate of compounds at each concentration. Curve fitting was performed via a four-parameter logistic model using GraphPad Prism software, and the GI50 value (the concentration of the compound when the proliferation inhibition rate was 50%) was calculated. In the formula, RLUcompound is the readout of the drug-treated group, RLUcontrol is the average value of the compound vehicle control group, and RLUBlank is the average value of the blank control group. [formula] Table 3. Results of inhibitory activity of test compounds against cell proliferation
Background: In ATP-based viability assays light output follows the ATP content of the culture.

The target in data set [3] is T2, WRN protein (AA N517-P1238, ICE) (Homo sapiens, UniProt Q14191).
T2 construct: WRN protein (AA N517-P1238, ICE); purchased ICE
T2 sequence (Q14191 517-1238): as the sequence (Q14191 517-1238, stated change not applied) above
Nature of the data set: Assay for ATPase activity of WRN helicase (ADP-Glo). It counts as biochemical. Particulars: inhibition of ATPase activity of WRN helicase; 0.3 nM WRN, 0.2 nM DNA substrate, 10 µM ATP. The protocol:
The assay buffer working solution was as follows: 30 mM Tris pH 7.5 + 0.02% BSA + 2 mM MgCl2 + 50 mM NaCl + 0.1% Pluronic® F127 + 1 mM DTT. WRN protein (AA N517-P1238, ICE) was obtained through protein expression and purification in vitro. A single-stranded DNA substrate ([…]) was synthesized in vitro. 1 µL each of compounds at different concentrations, the WRN protein, and the DNA substrate, together with 2 µL of ATP, were added to a 384-well white plate. The working concentrations of the WRN protein, the DNA substrate, and the ATP were 0.3 nM, 0.2 nM, and 10 µM, respectively. The plate was incubated at room temperature for 20 minutes. After the incubation was completed, the detection was performed in accordance with the instructions of the ADP-Glo Assay Kit (Promega), and the chemiluminescence value was read.
The inhibition rate was calculated according to Formula 1, where RLUsample is the readout of the compound well, RLUmax is the readout of the DMSO control well, and RLUmin is the readout of the control well without the WRN protein. Curve fitting was performed via a four-parameter logistic model (log(inhibitor) vs. response -- Variable slope) using GraphPad Prism software, and the IC50 value was calculated. Inhibition% = (1−(RLUsample−RLUmin)/(RLUmax−RLUmin)) × 100% [formula] Table 1. Results of inhibitory activity of test compounds against ATPase activity of WRN helicase
In general terms: ADP-Glo first removes unused ATP, then detects ADP through luciferase.

Data set [4] is described as follows: Mouse pharmacokinetic assay. In kind it is in vivo, Balb/c mice. Conditions: po, mouse plasma, i.g. (10 mg/kg). The procedure:
4.1. Experimental animals: Male Balb/c mice, about 22 g, 6-8 weeks old, 6 mice/compound. The animals were purchased from CHENGDU DOSSY EXPERIMENTAL ANIMALS CO., LTD.
4.2. Experimental design: On the day of the experiment, the Balb/c mice were randomly grouped according to their body weights. The animals were fasted with water available for 12-14 h one day before the administration, and were fed 4 h after the administration. Table 4. Administration information
Vehicle for intravenous administration: 5% DMA + 5% Solutol + 90% Saline; and vehicle for intragastric administration: 5% DMSO + 95% (20% SBE-β-CD in Saline)
Before and after the administration, 0.03 ml of blood was taken from the orbit under isoflurane anesthesia and placed in an EDTAK2 centrifuge tube. The tube was centrifuged at 5000 rpm at 4°C for 10 min, and plasma was collected. The blood collection time points for the intravenous administration group and intragastric administration group were as follows: 0, 2 min, 5 min, 15 min, 30 min, 1 h, 2 h, 4 h, and 7 h. Before analysis and detection, all samples were stored at - 80°C. Table 5. Pharmacokinetic parameters of test compounds in mouse plasma

In data set [5] the test system is HT-29 cells. Nature of the data set: HT-29 cell proliferation inhibition assay (CellTiter-Glo). It counts as cell-based. Particulars: Homo sapiens, 96 h, 4 days, read-out: Inhibitory activity against HT-29 cell proliferation IC50. The protocol: as §1, with “HT-29” for “SW48”, “DMEM” for “Leibovitz L15”, “with 5%” for “without”, “(4)” for “(5)”, “[formula]” for “[formula] Table 3. Results of inhibitory activity of test compounds against cell proliferation”

Data set [6] in a line: Beagle dog pharmacokinetic assay. In kind it is in vivo, Beagle dogs. Particulars: male, po; Beagle dog plasma, i.g. (3 mg/kg). The procedure:
7.1. Experimental animals: Male Beagle dogs, about 8-13 kg, 6 Beagle dogs/compound.
7.2. Experimental method: On the day of the experiment, the Beagle dogs were randomly grouped according to their body weights. The animals were fasted with water available for 14-18 h one day before the administration, and were fed 4 h after the administration. The animals were administered according to Table 6. Table 6. Administration information
Note: Vehicle for intravenous administration: 5% DMA + 5% Solutol + 90% Saline; and vehicle for intragastric administration: 5% DMSO + 95% (20% SBE-β-CD in Saline) (DMA: dimethylacetamide; Solutol: polyethylene glycol-15-hydroxystearate; Saline: normal saline; and MC: methylcellulose)
Before and after the administration, 1 ml of blood was taken from the jugular veins or limb veins and placed in an EDTAK2 centrifuge tube. The tube was centrifuged at 5000 rpm at 4°C for 10 min, and plasma was collected. The blood collection time points for the intravenous administration group and intragastric administration group were as follows: 0, 5 min, 15 min, 30 min, 1 h, 2 h, 4 h, 6 h, 8 h, 10 h, 12 h, 24 h, and 48 h. Before analysis and detection, all samples were stored at -80°C. The samples were analyzed quantitatively by LC-MS/MS. Table 7. Pharmacokinetic parameters of test compounds in Beagle dog plasma

In the case of `Cc1ncnc(C(=O)N2CCN(c3c4n(c5nc(C6=CCOCC6)nn5c3=O)C(C(=O)Nc3ccc(C(F)(F)F)cc3Cl)CCC4)CC2)c1O` (racemic) [Compound 1], the values for the IC50 in data set [1] and in data set [2] were 20 to 100 nM and below 100 nM, respectively.
Compound `Cc1ncnc(C(=O)N2CCN(c3c4n(c5nc(C6=CCOCC6)nn5c3=O)C(C(=O)Nc3ccc(C(F)(F)F)c5c3CCC5)CCC4)CC2)c1O` (racemic) [Compound 28] yielded an IC50 in data set [1] below 20 nM.
On to `O=C(Nc1ccc(C(F)(F)F)cc1Cl)C1CCCc2c(N3CCN(C(=O)c4ncccc4O)CC3)c(=O)n3nc(C4=CCOCC4)nc3n21` (single isomer, unassigned) [Compound 2-B], for which the IC50 is below 20 nM in data set [1], below 100 nM in data set [2] and below 20 nM in data set [3].
On to `Cc1ncnc(C(=O)N2CCN(c3c4n(c5nc(C6=CCOCC6)nn5c3=O)C(C(=O)Nc3ccc(C(F)(F)F)nc3Cl)CCC4)CC2)c1O` (single isomer, unassigned) [Compound 3-B], for which the IC50 in data set [1] was below 20 nM.
On the same count and under the same terms, under `Cc1cc(C(F)(F)F)ccc1NC(=O)C1CCCc2c(N3CCN(C(=O)c4ncnc(C)c4O)CC3)c(=O)n3nc(C4=CCOCC4)nc3n21` (single isomer, unassigned) [Compound 5-B] stands below 20 nM.
On to `Cc1ncnc(C(=O)N2CCN(c3c4n(c5nc(C6=CCOCC6)nn5c3=O)C(C(=O)Nc3ccc(C(F)(F)F)cc3Cl)CC4)CC2)c1O` (single isomer, unassigned) [Compound 6-B], for which, in data set [1], the IC50 is below 20 nM.
For `[2H]C1([2H])N(C(=O)c2ncnc(C)c2O)C([2H])([2H])C([2H])([2H])N(c2c3n(c4nc(C5=CCOCC5)nn4c2=O)C(C(=O)Nc2ccc(C(F)(F)F)cc2Cl)CCC3)C1([2H])[2H]` (single isomer, unassigned) [Compound 7-B], the IC50 in data set [1] was below 20 nM; in data set [2], below 100 nM.
`Cc1ncnc(C(=O)N2CC3(CCN(c4c5n(c6nc(C7=CCOCC7)nn6c4=O)C(C(=O)Nc4ccc(C(F)(F)F)cc4Cl)CCC5)CC3)C2)c1O` (single isomer, unassigned) [Compound 14-B]: in data set [4] (in vivo), the AUC(0-t) amounted to 24200 ng·h/mL and the half-life is 325 min.
With `Cc1ncnc(C(=O)N2CCN(c3c4n(c5nc(C6=CCOCC6)nn5c3=O)C(C(=O)Nc3ccc(C(F)(F)F)cc3F)CCC4)CC2)c1O` (single isomer, unassigned) [Compound 15-B], the IC50 in data set [1] was below 20 nM.
For the compound `Cc1ncnc(C(=O)N2CCN(c3c4n(c5nc(C6=CCOCC6)nn5c3=O)C(C(=O)Nc3ccc(C(F)(F)F)cc3Cl)CCC4)[C@@H](C)C2)c1O` (single isomer, unassigned) [Compound 26-A], the IC50 in data set [1] is below 20 nM; in data set [2], below 100 nM; in data set [5], at least 10 µM.
Consider `CCc1c(N2CCN(C(=O)c3ncnc(C)c3O)CC2)c(=O)n2nc(C3=CCOCC3)nc2n1CC(=O)Nc1ccc(C(F)(F)F)cc1Cl` [HRO761, reference compound], for which the AUC(0-t) in data set [6] worked out at 10800 ng·h/mL; in data set [4] (male, Balb/c), 9210 ng·h/mL. Besides, in data set [4] (male, Balb/c), the half-life was 139 min. For the same compound, the bioavailability in data set [4] (male, Balb/c, read-out: F (%)) was 74.1%.
